Assay results reported in article PMC10349806 (Nature Communications, 2023).
“And” between values parts separate entries of the source, which are not always exact repeats. Equal values may be shown once. Read-outs that look alike come from different tables or passages of the source.

Legend:
PfCRT variant E207A = test: Drug uptake assay, oocytes expressing E207A; type: cell-based, Plasmodium falciparum; conditions: for Km: read-out: KM ± SEM
Description: (§1) Site-directed mutagenesis of PfCRT^Dd2 was performed as described using the megaprimer method with overlap extension[21],[54]. The primer pairs used are listed in Supplementary Table 6. Please note that a codon-optimized and oocyte-adapted version of PfCRT^Dd2 was used[22] (Supplementary Fig. 16). The resulting DNA fragment was cloned into the SP64T expression vector and verified by sequencing.
(§2) Oocytes were obtained as described previously. Briefly, adult (>2 years old) female X. laevis frogs (NASCO) were anesthetized in a cooled solution of ethyl 3-amino benzoate methanesulfonate (0.1%, w/v), followed by a surgical removal of parts of the ovary. The ovary lobes were carefully dissected and small pieces of oocytes were incubated in Ca^2+-free ND96 buffer (96 mM NaCl, 2 mM KCl, 1 mM MgCl2 buffered with 5 mM HEPES/NaOH, pH 7.5) supplemented with collagenase D (0.1%, w/v; Roche), BSA (0.5%, w/v), and 9 mm Na2HPO4 at 18 °C for 14-16 h while gentle shaking. After incubation, the oocytes were carefully washed several times with ND96 buffer (96 mM NaCl, 2 mM KCl, 1.8 mM CaCl2, 1 mM MgCl2 buffered with 5 mM HEPES/NaOH, pH 7.5) supplemented with 100 mg l^−1 gentamycin). Defolliculated and healthy-looking stage V-VI oocytes were manually selected for RNA microinjection. The RNA was generated as following: The codon-optimized sequences of PfCRT variants were cloned into the pSP64T expression vector. After vector linearization using the restriction endonucleases BamHI or SalI (New England Biolabs), transcription was performed using the in vitro SP6 mMessage mMachine Kit (Ambion)[34]. The obtained RNA was kept at −80 °C and diluted with nuclease-free water to a concentration of 0.6 μg μl^−1. Precision-bore glass capillary tubes (3.5-inch glass capillaries; Drummond Scientific Co.) were pulled on a vertical puller (P-87 Flaming/Brown micropipette puller, Sutter Instrument Co.), graduated, and placed on a microinjector (Nanoject II Auto-Nanoliter Injector, Drummond Scientific Co.). 50 nl of nuclease-free water alone (control oocytes) or 50 nl of 0.6 μg μl^−1 RNA were injected under stereomicroscopic control. Injected oocytes were incubated for 46–72 h at 18 °C with twice-daily buffer changes before usage in experiments.
Drug uptake assays were performed as described previously[21],[22],[24],[34]. […] The direction of radio-labeled drug transport is here from the mostly acidic extracellular solution (pH 4.5 or 6.0, as indicated) into the oocyte cytosol (pH ∼ 7.2), which corresponds to the efflux of drug from the acidic digestive vacuole (pH 5.2) into the parasite cytoplasm (pH 7.2). The topology of PfCRT in the oolemma is such that both the N- and C-terminus face the extracellular milieu[3],[22]. In the parasite, the N- and C-terminus face the lumen of the digestive vacuole. […] For determination of the amount of drug uptake for each oocyte, the reaction medium was removed and the oocytes were washed three times with 2 ml of ice-cold ND96 buffer. Each oocyte was individually transferred to a scintillation vial containing 5% sodium dodecyl sulfate (200 μl) for lysis. […] Oocytes that were injected with water instead of RNA were analyzed in parallel, representing the uptake of a drug by diffusion and/or endogenous permeation pathways. The resulting value represents the “background“ level of drug accumulation in oocytes (in-depth discussion in[22]). The specific PfCRT-mediated uptake was determined by subtracting the corresponding background value measured in water-injected oocytes from that of PfCRT-expressing oocytes. In all cases, at least three separate experiments were performed on oocytes from different frogs (biological replicate), and for each condition in an experiment, measurements were made from 10 oocytes per treatment. For pH 5.5, 6.0, and 6.5, ND96 was buffered with 5 mM MES/Tris base.

PfCRT variant E208A = molecular target: T1, PfCRT variant E208A (Plasmodium falciparum, UniProt Q9N623, A220S/E208A/I356T/K76T/M74I/N326S/N75E/Q271E/R371I); test: CQ uptake assay, oocytes expressing E208A; type: cell-based
T1 sequence (Q9N623 1-424 M74I/N75E/K76T/E208A/A220S/Q271E/N326S/I356T/R371I): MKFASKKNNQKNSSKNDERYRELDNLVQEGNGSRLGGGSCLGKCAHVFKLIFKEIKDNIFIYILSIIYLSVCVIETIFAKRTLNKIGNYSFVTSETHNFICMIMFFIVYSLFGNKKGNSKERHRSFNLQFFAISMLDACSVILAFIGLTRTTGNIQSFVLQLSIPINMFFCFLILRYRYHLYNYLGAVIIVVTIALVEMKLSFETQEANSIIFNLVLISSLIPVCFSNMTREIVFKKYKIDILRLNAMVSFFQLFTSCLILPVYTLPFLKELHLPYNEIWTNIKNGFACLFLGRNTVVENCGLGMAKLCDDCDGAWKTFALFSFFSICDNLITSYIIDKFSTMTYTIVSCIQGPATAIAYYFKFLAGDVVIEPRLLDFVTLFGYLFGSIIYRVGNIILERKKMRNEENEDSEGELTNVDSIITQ
Description: as §1, §2
Drug uptake assays were performed as described previously[21],[22],[24],[34]. […] The direction of radio-labeled drug transport is here from the mostly acidic extracellular solution (pH 4.5 or 6.0, as indicated) into the oocyte cytosol (pH ∼ 7.2), which corresponds to the efflux of drug from the acidic digestive vacuole (pH 5.2) into the parasite cytoplasm (pH 7.2). The topology of PfCRT in the oolemma is such that both the N- and C-terminus face the extracellular milieu[3],[22]. In the parasite, the N- and C-terminus face the lumen of the digestive vacuole. […] For determination of the amount of drug uptake for each oocyte, the reaction medium was removed and the oocytes were washed three times with 2 ml of ice-cold ND96 buffer. Each oocyte was individually transferred to a scintillation vial containing 5% sodium dodecyl sulfate (200 μl) for lysis. […] Oocytes that were injected with water instead of RNA were analyzed in parallel, representing the uptake of a drug by diffusion and/or endogenous permeation pathways. […] The specific PfCRT-mediated uptake was determined by subtracting the corresponding background value measured in water-injected oocytes from that of PfCRT-expressing oocytes. […]

[1] = 50 µM CQ, 1 h, independent samples
[2] = pH 4.5, single replicates, Fig 1d left
[3] = pH 6.0, single replicates, Fig 1d left

Compound: CCN(CC)CCCC(C)Nc1ccnc2cc(Cl)ccc12 (centres unmarked) [CQ, chloroquine]
- E207A transport activity (PfCRT variant E207A; 10 µM CQ, pH 4.5, 60 min): 0.59 pmol oocyte-1 h-1 and 0.34 pmol oocyte-1 h-1 and 0.50 pmol oocyte-1 h-1
- E207A transport activity (PfCRT variant E207A; 10 µM CQ, pH 6.0, 60 min): 0.34 pmol oocyte-1 h-1 and 0.28 pmol oocyte-1 h-1 and 0.55 pmol oocyte-1 h-1 and 0.40 pmol oocyte-1 h-1
- E207A transport activity pH 5.0 (PfCRT variant E207A; [1]): 1.89 pmol oocyte-1 h-1 and 1.63 pmol oocyte-1 h-1
- E207A transport activity pH 5.5 (PfCRT variant E207A; [1]): 2.56 pmol oocyte-1 h-1 and 1.58 pmol oocyte-1 h-1 and 2.27 pmol oocyte-1 h-1
- E207A transport activity (PfCRT variant E207A; 100 µM CQ, pH 4.5, 60 min): 4.66 pmol oocyte-1 h-1 and 5.17 pmol oocyte-1 h-1 and 4.25 pmol oocyte-1 h-1 and 5.82 pmol oocyte-1 h-1
- E207A transport activity (PfCRT variant E207A; 100 µM CQ, pH 6.0, 60 min): 3.91 pmol oocyte-1 h-1 and 5.58 pmol oocyte-1 h-1 and 5.27 pmol oocyte-1 h-1 and 3.70 pmol oocyte-1 h-1 and 4.07 pmol oocyte-1 h-1 and 4.29 pmol oocyte-1 h-1
- E207A transport activity (PfCRT variant E207A; 200 µM CQ, pH 4.5, 60 min): 7.55 pmol oocyte-1 h-1 and 5.35 pmol oocyte-1 h-1 and 6.95 pmol oocyte-1 h-1 and 5.93 pmol oocyte-1 h-1
- E207A transport activity (PfCRT variant E207A; 200 µM CQ, pH 6.0, 60 min): 5.60 pmol oocyte-1 h-1 and 6.08 pmol oocyte-1 h-1 and 5.00 pmol oocyte-1 h-1 and 8.09 pmol oocyte-1 h-1 and 6.01 pmol oocyte-1 h-1
- E207A transport activity (PfCRT variant E207A; 300 µM CQ, pH 4.5, 60 min): 7.51 pmol oocyte-1 h-1 and 7.97 pmol oocyte-1 h-1 and 7.66 pmol oocyte-1 h-1
- E207A transport activity (PfCRT variant E207A; 300 µM CQ, pH 6.0, 60 min): 7.48 pmol oocyte-1 h-1 and 7.35 pmol oocyte-1 h-1 and 8.15 pmol oocyte-1 h-1 and 7.49 pmol oocyte-1 h-1 and 7.22 pmol oocyte-1 h-1
- E207A transport activity (PfCRT variant E207A; 400 µM CQ, pH 4.5, 60 min): 9.19 pmol oocyte-1 h-1 and 7.30 pmol oocyte-1 h-1 and 9.06 pmol oocyte-1 h-1
- E207A transport activity (PfCRT variant E207A; 400 µM CQ, pH 6.0, 60 min): 7.35 pmol oocyte-1 h-1 and 7.71 pmol oocyte-1 h-1 and 9.99 pmol oocyte-1 h-1 and 6.32 pmol oocyte-1 h-1 and 7.81 pmol oocyte-1 h-1
- E207A transport activity (PfCRT variant E207A; 500 µM CQ, pH 4.5, 60 min): 6.87 pmol oocyte-1 h-1 and 8.11 pmol oocyte-1 h-1 and 8.95 pmol oocyte-1 h-1 and 9.82 pmol oocyte-1 h-1
- E207A transport activity (PfCRT variant E207A; 500 µM CQ, pH 6.0, 60 min): 7.79 pmol oocyte-1 h-1 and 6.89 pmol oocyte-1 h-1 and 7.81 pmol oocyte-1 h-1 and 10.28 pmol oocyte-1 h-1 and 8.00 pmol oocyte-1 h-1
- transport activity at pH 6.0 compared with PfCRT^Dd2 (PfCRT variant E207A; E207A, 50 µM CQ): 44%
- Vmax ± SEM (PfCRT variant E207A; E207A, pH 4.5): 11 ± 1 pmol h^−1 oocyte ^−1
- Km (PfCRT variant E207A; E207A, pH 4.5): 180 ± 30 µM
- Vmax ± SEM (PfCRT variant E207A; E207A, pH 6.0): 11 ± 1 pmol h^−1 oocyte ^−1
- Km (PfCRT variant E207A; E207A, pH 6.0): 150 ± 30 µM
- Activity at pH 6.0 (PfCRT variant E207A; E207A, 50 µM CQ, 1 h, mean ± SEM): 2.24 ± 0.15 pmol h-1 oocyte-1
- R-value (PfCRT variant E207A; E207A, CQ transport at pH 4.5 / pH 6.0): 0.9 and 0.89 ± 0.03
- E207A transport activity pH 4.5 (PfCRT variant E207A; pH 4.5, individual replicates (Fig 6a)): 1.64 pmol oocyte-1 h-1 and 1.58 pmol oocyte-1 h-1 and 3.29 pmol oocyte-1 h-1 and 2.17 pmol oocyte-1 h-1 and 2.03 pmol oocyte-1 h-1 and 1.48 pmol oocyte-1 h-1 and 2.30 pmol oocyte-1 h-1 and 1.60 pmol oocyte-1 h-1
- E207A transport activity pH 4.5 (PfCRT variant E207A; pH 4.5, individual replicates, Fig 6b): 1.64 pmol oocyte-1 h-1 and 1.58 pmol oocyte-1 h-1 and 3.29 pmol oocyte-1 h-1 and 2.17 pmol oocyte-1 h-1 and 2.03 pmol oocyte-1 h-1 and 1.48 pmol oocyte-1 h-1 and 2.30 pmol oocyte-1 h-1 and 1.60 pmol oocyte-1 h-1
- E207A transport activity pH 4.5 (PfCRT variant E207A; [2]): 1.64 pmol oocyte-1 h-1 and 1.58 pmol oocyte-1 h-1 and 3.29 pmol oocyte-1 h-1 and 2.17 pmol oocyte-1 h-1 and 2.03 pmol oocyte-1 h-1 and 1.48 pmol oocyte-1 h-1 and 2.30 pmol oocyte-1 h-1 and 1.60 pmol oocyte-1 h-1
- E207A R-value (PfCRT variant E207A; pH 4.5 vs pH 6.0, Fig 1d left): 0.81 and 1.04 and 1.03 and 0.85 and 0.93 and 0.99 and 0.74
- E207A transport activity pH 6.0 (PfCRT variant E207A; pH 6.0, individual replicates (Fig 6a)): 2.02 pmol oocyte-1 h-1 and 1.94 pmol oocyte-1 h-1 and 3.16 pmol oocyte-1 h-1 and 2.11 pmol oocyte-1 h-1 and 2.38 pmol oocyte-1 h-1 and 1.75 pmol oocyte-1 h-1 and 2.47 pmol oocyte-1 h-1 and 1.62 pmol oocyte-1 h-1 and 2.39 pmol oocyte-1 h-1
- E207A transport activity pH 6.0 (PfCRT variant E207A; pH 6.0, individual replicates, Fig 6b): 2.02 pmol oocyte-1 h-1 and 1.94 pmol oocyte-1 h-1 and 3.16 pmol oocyte-1 h-1 and 2.11 pmol oocyte-1 h-1 and 2.38 pmol oocyte-1 h-1 and 1.75 pmol oocyte-1 h-1 and 2.47 pmol oocyte-1 h-1 and 1.62 pmol oocyte-1 h-1 and 2.39 pmol oocyte-1 h-1
- E207A transport activity pH 6.0 (PfCRT variant E207A; [3]): 2.02 pmol oocyte-1 h-1 and 1.94 pmol oocyte-1 h-1 and 3.16 pmol oocyte-1 h-1 and 2.11 pmol oocyte-1 h-1 and 2.38 pmol oocyte-1 h-1 and 1.75 pmol oocyte-1 h-1 and 2.47 pmol oocyte-1 h-1 and 1.62 pmol oocyte-1 h-1 and 2.39 pmol oocyte-1 h-1
- E207A R-value (PfCRT variant E207A; ratio of activity pH 4.5 / pH 6.0): 0.81 and 1.04 and 1.03 and 0.85 and 0.93 and 0.99 and 0.74
- E207A R-value (PfCRT variant E207A; transport activity pH 4.5 relative to pH 6.0 (Fig 6a)): 0.81 and 1.04 and 1.03 and 0.85 and 0.93 and 0.99 and 0.74
- Activity at pH 6.0 (PfCRT variant E208A; E208A, 50 µM CQ, 1 h, mean ± SEM): 5.43 ± 0.38 pmol h-1 oocyte-1
- R-value (PfCRT variant E208A; E208A, CQ transport at pH 4.5 / pH 6.0): 0.48 and 0.48 ± 0.05
- E208A transport activity pH 4.5 (PfCRT variant E208A; [2]): 3.17 pmol oocyte-1 h-1 and 3.09 pmol oocyte-1 h-1 and 1.68 pmol oocyte-1 h-1
- E208A R-value (PfCRT variant E208A; pH 4.5 vs pH 6.0, Fig 1d left): 0.52 and 0.55 and 0.37
- E208A transport activity pH 6.0 (PfCRT variant E208A; [3]): 6.15 pmol oocyte-1 h-1 and 5.57 pmol oocyte-1 h-1 and 4.57 pmol oocyte-1 h-1
